Test results reported in ChEMBL document CHEMBL4732141, “Imidazopyridine-Based 5-HT Receptor Neutral Antagonists: Impact of N-Benzyl and N-Phenylsulfonyl Fragments on Different Receptor Conformational States” (J Med Chem, 2021).
The source made the active and inactive calls. No cut-off for these calls is given here.

Key:
[1] = Stability in pH 1 buffer assessed as compound decomposition after 1 hr; assay type: physicochemical; settings: pH 1, 1 h
[2] = Stability in deuterated dimethyl sulfoxide; assay type: physicochemical
[3] = biological target: T1, 5-hydroxytryptamine receptor 1A (Homo sapiens, UniProt P08908); assay: Displacement of […] from human 5HT1A expressed in HEK293 cell membranes incubated for 1 hr by micro-beta plate reader based analysis; set-up: species or system Cell membrane
T1 sequence (P08908 whole entry): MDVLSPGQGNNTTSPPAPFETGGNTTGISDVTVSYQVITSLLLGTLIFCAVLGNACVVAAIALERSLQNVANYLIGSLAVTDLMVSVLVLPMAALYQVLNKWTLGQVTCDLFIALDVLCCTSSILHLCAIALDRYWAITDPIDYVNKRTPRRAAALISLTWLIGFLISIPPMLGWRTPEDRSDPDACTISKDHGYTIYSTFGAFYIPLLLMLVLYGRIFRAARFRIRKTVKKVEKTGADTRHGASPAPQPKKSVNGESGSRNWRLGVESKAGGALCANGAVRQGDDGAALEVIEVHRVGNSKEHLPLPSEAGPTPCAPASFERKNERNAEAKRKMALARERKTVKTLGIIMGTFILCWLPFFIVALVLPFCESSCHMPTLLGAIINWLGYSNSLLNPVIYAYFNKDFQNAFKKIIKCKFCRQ

[4] = biological target: 5-hydroxytryptamine receptor 2A (Homo sapiens, UniProt P28223); assay: Displacement of […] from human 5HT2A expressed in HEK293 cell membranes incubated for 1 hr by micro-beta plate reader based analysis; set-up: species or system Cell membrane
Chain of 5-hydroxytryptamine receptor 2A (P28223 whole entry): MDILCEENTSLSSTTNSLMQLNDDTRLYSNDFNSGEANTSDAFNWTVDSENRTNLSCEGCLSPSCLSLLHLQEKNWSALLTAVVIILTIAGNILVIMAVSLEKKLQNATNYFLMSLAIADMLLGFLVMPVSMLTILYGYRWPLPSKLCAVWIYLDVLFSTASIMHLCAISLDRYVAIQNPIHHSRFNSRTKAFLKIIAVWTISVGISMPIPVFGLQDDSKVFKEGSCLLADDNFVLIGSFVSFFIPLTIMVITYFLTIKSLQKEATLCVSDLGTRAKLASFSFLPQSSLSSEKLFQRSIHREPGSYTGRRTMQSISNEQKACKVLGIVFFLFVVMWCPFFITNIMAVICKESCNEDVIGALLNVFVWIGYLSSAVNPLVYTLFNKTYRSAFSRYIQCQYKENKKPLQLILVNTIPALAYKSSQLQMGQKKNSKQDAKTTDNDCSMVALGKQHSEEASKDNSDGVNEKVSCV

[5] = biological target: T1, 5-hydroxytryptamine receptor 1A; assay: Agonist activity at human 5HT1A expressed in HEK293 cells assessed as stimulation of cAMP production incubated for 30 mins by LANCE ultra cAMP detection assay; assay type: cell-based
[6] = biological target: T1, 5-hydroxytryptamine receptor 1A; assay: Antagonist activity at human 5HT1A expressed in HEK293 cells assessed as reduction in forskolin-induced stimulation of cAMP production incubated for 30 mins by LANCE ultra cAMP detection assay; assay type: cell-based; settings: hek293, 0.5 h
[7] = biological target: T2, alpha-1A adrenergic receptor (Homo sapiens, UniProt P35348); assay: Inhibition of human alpha1A adrenergic receptor at 1 uM relative to control
T2 sequence (P35348 whole entry): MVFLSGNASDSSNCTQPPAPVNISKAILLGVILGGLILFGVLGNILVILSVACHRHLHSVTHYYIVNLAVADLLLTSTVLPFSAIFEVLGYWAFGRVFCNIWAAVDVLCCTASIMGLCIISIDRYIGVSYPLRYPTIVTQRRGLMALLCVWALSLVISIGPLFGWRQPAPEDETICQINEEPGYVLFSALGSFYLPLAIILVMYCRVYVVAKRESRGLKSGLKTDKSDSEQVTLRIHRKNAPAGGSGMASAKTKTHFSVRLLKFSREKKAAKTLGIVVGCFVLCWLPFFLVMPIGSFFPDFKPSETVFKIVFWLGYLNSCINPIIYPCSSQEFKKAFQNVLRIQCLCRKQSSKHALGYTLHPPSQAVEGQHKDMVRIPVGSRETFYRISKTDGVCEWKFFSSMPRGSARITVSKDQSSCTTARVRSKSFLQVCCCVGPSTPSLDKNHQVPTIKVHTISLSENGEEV

[8] = biological target: beta-1 adrenergic receptor (Homo sapiens, UniProt P08588); assay: Inhibition of human beta1 adrenergic receptor at 1 uM relative to control
Chain of beta-1 adrenergic receptor (P08588 whole entry): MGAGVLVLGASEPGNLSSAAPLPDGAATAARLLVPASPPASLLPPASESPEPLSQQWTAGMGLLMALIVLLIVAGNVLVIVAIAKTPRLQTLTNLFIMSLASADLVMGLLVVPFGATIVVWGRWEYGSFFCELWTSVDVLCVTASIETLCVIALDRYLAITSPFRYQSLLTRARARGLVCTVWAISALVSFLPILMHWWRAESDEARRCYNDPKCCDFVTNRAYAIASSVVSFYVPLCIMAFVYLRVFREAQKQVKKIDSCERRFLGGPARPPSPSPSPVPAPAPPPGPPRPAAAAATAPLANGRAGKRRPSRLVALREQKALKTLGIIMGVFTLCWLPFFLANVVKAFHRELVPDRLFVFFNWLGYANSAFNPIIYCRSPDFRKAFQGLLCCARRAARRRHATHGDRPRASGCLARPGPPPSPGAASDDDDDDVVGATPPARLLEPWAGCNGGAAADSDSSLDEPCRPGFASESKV

hERG (KCNH2) = hERG (KCNH2) (Homo sapiens, UniProt Q12809); assay: Inhibition of human ERG at 1 uM relative to control
Chain of hERG (KCNH2) (Q12809 whole entry): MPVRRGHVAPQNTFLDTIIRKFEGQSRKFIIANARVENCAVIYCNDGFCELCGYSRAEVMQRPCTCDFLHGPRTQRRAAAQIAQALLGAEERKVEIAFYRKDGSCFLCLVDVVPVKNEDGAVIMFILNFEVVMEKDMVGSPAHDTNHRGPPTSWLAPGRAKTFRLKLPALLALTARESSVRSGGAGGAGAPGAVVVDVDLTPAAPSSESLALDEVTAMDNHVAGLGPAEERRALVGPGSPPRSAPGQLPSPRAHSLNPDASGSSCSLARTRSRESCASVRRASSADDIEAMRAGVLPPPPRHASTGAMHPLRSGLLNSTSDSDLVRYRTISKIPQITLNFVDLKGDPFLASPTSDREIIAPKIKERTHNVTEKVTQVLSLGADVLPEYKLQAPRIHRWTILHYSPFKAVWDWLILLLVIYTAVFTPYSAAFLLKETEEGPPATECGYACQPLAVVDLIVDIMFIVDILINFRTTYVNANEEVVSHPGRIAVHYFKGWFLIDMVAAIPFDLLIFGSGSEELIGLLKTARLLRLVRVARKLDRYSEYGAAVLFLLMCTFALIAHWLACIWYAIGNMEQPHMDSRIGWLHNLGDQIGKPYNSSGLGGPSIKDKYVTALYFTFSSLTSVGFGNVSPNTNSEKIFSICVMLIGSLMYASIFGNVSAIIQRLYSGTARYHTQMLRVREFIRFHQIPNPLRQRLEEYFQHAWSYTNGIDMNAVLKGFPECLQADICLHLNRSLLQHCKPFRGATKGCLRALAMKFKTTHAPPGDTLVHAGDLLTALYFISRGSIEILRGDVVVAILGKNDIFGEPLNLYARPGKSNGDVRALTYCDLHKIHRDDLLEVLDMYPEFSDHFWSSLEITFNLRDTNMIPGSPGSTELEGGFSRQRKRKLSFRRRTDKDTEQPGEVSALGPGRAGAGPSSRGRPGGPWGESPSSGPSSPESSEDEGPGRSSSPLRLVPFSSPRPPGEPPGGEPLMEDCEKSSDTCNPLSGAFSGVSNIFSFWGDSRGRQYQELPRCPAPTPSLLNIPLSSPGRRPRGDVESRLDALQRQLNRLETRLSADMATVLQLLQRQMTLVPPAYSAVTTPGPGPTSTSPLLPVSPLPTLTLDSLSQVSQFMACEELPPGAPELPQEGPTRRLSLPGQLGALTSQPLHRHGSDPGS

[9] = biological target: histamine H1 receptor (HRH1) (Homo sapiens, UniProt P35367); assay: Inhibition of human HRH1 at 1 uM relative to control
Chain of histamine H1 receptor (HRH1) (P35367 whole entry): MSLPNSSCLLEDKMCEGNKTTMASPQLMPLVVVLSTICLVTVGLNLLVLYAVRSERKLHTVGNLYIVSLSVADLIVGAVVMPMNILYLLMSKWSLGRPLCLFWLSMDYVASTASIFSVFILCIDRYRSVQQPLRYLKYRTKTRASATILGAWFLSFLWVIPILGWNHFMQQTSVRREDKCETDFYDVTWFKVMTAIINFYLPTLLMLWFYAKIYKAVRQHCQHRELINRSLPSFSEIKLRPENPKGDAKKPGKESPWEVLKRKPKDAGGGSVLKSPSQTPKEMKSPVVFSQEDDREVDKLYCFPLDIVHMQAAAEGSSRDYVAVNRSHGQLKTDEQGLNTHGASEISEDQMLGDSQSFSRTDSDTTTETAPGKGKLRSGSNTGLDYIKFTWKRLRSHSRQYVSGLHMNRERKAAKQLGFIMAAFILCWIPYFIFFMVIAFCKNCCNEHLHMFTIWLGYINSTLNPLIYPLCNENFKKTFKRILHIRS

[10] = biological target: T3, muscarinic acetylcholine receptor M1 (Homo sapiens, UniProt P11229); assay: Inhibition of human muscarinic receptor 1 at 1 uM relative to control
T3 sequence (P11229 whole entry): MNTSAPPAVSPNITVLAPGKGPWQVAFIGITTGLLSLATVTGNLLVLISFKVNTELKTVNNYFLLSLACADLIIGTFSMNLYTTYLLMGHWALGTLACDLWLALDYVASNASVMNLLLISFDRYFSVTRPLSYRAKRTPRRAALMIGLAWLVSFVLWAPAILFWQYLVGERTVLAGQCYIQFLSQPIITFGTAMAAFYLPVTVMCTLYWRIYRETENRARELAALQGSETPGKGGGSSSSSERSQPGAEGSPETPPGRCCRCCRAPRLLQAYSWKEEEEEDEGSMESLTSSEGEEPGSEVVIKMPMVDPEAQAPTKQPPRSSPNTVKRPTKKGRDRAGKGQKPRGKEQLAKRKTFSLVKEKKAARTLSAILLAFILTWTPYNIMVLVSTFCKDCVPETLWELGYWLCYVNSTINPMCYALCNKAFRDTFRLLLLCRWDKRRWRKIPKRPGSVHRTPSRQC

[11] = Neurotoxicity in human SH-SY5Y cells assessed as reduction in cell viability incubated for 24 hrs by MTT assay; assay type: toxicity, cell-based
[12] = Toxicity in mouse C8-D1A astrocytes assessed as reduction in cell viability at […] by MTT assay; assay type: cell-based; settings: astrocyte, dose 0.25 µM
[13] = Toxicity in mouse C8-D1A astrocytes assessed as reduction in cell viability by MTT assay; assay type: cell-based, Astrocyte
Astrocyte [14] = assay: Glio-protective activity in mouse C8-D1A astrocytes assessed as reduction in DOX-induced toxicity at […] pre-incubated for 5 hrs before doxorubicin addition and measured after 3 hrs by MTT assay; assay type: functional, cell-based; settings: dose 0.25 µM, time 8.0 hrs
Astrocyte [15] = assay: Glio-protective activity in mouse C8-D1A astrocytes assessed as reduction in DOX-induced toxicity at […] pre-incubated for 5 hrs before doxorubicin addition and measured after 3 hrs by LDH release assay; assay type: functional, cell-based; settings: dose 0.25 µM
Astrocyte [16] = assay: Glio-protective activity in mouse C8-D1A astrocytes assessed as reduction in 6-OHDA-induced toxicity at […] pre-incubated for 12 hrs before doxorubicin addition and measured after 24 hrs by MTT assay; assay type: functional, cell-based; settings: dose 0.25 µM, time 36.0 hrs
Astrocyte [17] = assay: Glio-protective activity in mouse C8-D1A astrocytes assessed as reduction in 6-OHDA-induced toxicity at […] pre-incubated for 12 hrs before doxorubicin addition and measured after 24 hrs by LDH assay; assay type: functional, cell-based; settings: dose 0.25 µM, time 36.0 hrs
[18] = Effect on neurite growth in […] NG108-15 cells expressing GFP-tagged 5-HT6 receptor assessed as neurite length at 1 uM incubated for 24 hrs by epifluorescence microscopy (reference value: 37.20 +/- 1.53 micrometer); assay type: functional
[19] = Stability in pH 1 buffer assessed as compound decomposition after 24 hrs; assay type: physicochemical; settings: pH 1, 24 h
[20] = biological target: 5-hydroxytryptamine receptor 6 (Homo sapiens, UniProt P50406); assay: Binding affinity to 5HT6R (unknown origin)
Chain of 5-hydroxytryptamine receptor 6 (P50406 whole entry): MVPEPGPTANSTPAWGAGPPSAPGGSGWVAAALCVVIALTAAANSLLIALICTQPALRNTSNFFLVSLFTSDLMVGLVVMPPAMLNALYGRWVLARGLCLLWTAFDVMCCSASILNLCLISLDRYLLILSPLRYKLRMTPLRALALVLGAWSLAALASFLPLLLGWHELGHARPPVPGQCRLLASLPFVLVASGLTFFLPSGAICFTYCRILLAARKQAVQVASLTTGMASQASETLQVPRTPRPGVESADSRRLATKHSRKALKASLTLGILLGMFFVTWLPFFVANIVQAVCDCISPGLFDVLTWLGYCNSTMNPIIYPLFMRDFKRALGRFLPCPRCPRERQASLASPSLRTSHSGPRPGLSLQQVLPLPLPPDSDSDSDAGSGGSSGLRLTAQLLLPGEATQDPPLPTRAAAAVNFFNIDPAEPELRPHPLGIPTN

COc1cccc(S(=O)(=O)n2c(-c3ccccc3)nc3c(N4CCNCC4)nccc32)c1
Stabilty [1]: Stable
Stabilty [2]: Unstable

CCc1nc2c(N3CCNCC3)nccc2n1S(=O)(=O)c1cccc(Cl)c1
Stabilty [1]: Stable
Stabilty [2]: Unstable
Ki [3]: 146 nM
Ki [4]: 562 nM
EC50 [5]: > 20000 nM
Activity [6]: Not Active
inhibition at 1 µM [7]: 22%
inhibition at 1 µM [8]: 10%
inhibition at 1 µM (hERG (KCNH2)): 12%
inhibition at 1 µM [9]: 6%
inhibition at 1 µM [10]: 4%

O=S(=O)(c1ccccc1)n1cnc2c(N3CCNCC3)nccc21
Stabilty [1]: Stable
Stabilty [2]: Unstable

CC(C)c1nc2c(N3CCNCC3)nccc2n1S(=O)(=O)c1ccccc1
Stabilty [1]: Stable
Stabilty [2]: Unstable

COc1cccc2c1C(=O)c1c(O)c3c(c(O)c1C2=O)C[C@@](O)(C(=O)CO)C[C@@H]3O[C@H]1C[C@H](N)[C@H](O)[C@H](C)O1 [DOXORUBICIN]
IC50 at 24 h [11]: 2300 nM

O=S(=O)(c1cccc(F)c1)n1cnc2c(N3CCNCC3)nccc21
Stabilty [1]: Stable
Stabilty [2]: Unstable

O=S(=O)(c1ccccc1)n1c(-c2ccccc2)nc2c(N3CCNCC3)nccc21
Stabilty [1]: Stable
Stabilty [2]: Unstable

COc1ccc(NS(=O)(=O)c2ccc(I)cc2)cc1N1CCN(C)CC1
Activity [12]: Non-Toxic
CC50 [13]: > 1000 nM
Activity (Astrocyte [14]): inactive
Activity (Astrocyte [15]): inactive
Activity (Astrocyte [16]): inactive
Activity (Astrocyte [17]): inactive

O=S(=O)(c1cccc(F)c1)n1c(-c2ccccc2)nc2c(N3CCNCC3)nccc21
Stabilty [1]: Stable
Stabilty [2]: Unstable

O=S(=O)(c1ccccc1)c1cnc2c(N3CCNCC3)cccc2c1 [INTEPIRDINE]
Stabilty [1]: Stable
Activity [18]: 12.06 um
Activity [12]: Non-Toxic
CC50 [13]: > 1000 nM

COc1cccc(S(=O)(=O)n2cnc3c(N4CCNCC4)nccc32)c1
Stabilty [1]: Stable
Stabilty [2]: Unstable

CCc1nc2c(N3CCNCC3)nccc2n1S(=O)(=O)c1cccc(F)c1
Stabilty [1]: Stable
Stabilty [2]: Unstable
Ki [3]: 829 nM
Ki [4]: 264 nM

O=S(=O)(c1cccc(Cl)c1)n1cnc2c(N3CCNCC3)nccc21
Stabilty [1]: Stable
Stabilty [2]: Unstable
Ki [3]: 285 nM
Ki [4]: 355 nM

O=S(=O)(c1cccc(Cl)c1)n1c(-c2ccccc2)nc2c(N3CCNCC3)nccc21
Stabilty [1]: Stable
Stabilty [2]: Unstable
Ki [3]: 1090 nM
Ki [4]: 410 nM

COc1cccc(S(=O)(=O)n2c(C(C)C)nc3c(N4CCNCC4)nccc32)c1
Stabilty [1]: Stable
Stabilty [19]: Stable
Stabilty [2]: Unstable

CC(C)c1nc2c(N3CCNCC3)nccc2n1S(=O)(=O)c1cccc(Cl)c1
Stabilty [1]: Stable
Stabilty [2]: Unstable
Ki [3]: 307 nM
Ki [4]: 239 nM

Cc1nc2c(N3CCNCC3)cccc2n1S(=O)(=O)c1ccccc1 [PF-05212377]
Ki [20]: 0.5 nM

CC(C)c1nc2c(N3CCNCC3)nccc2n1S(=O)(=O)c1cccc(F)c1
Stabilty [1]: Stable
Stabilty [2]: Unstable
